From US10370391B2, “Hydrogen peroxide-activable, anti-oxidant compounds and methods using same” (Beth Israel Deaconess Medical Center, Inc., priority 2014, dated 2019)

Experiments:
[1] = Reaction of BRAP with H2O2 monitored by 1H NMR in D2O; type: physicochemical
Method: Since BRAP was designed to be rapidly oxidized by H2O2, generating HBA, boric acid and 2-(hydroxymethyl)-2-methylpropane-1,3-diol, the sensitivity of BRAP to H2O2 was investigated using ^1H NMR. BRAP was added to D2O containing H2O2 and the changes in the signal were monitored over time. In the presence of H2O2, BRAP was rapidly oxidized to generate HBA in a H2O2 concentration-dependent manner, confirmed by the appearance of new aromatic proton peaks at 6.8 and 7.2 ppm. In the presence of equimolar concentration of H2O2 (1 mM), a majority of boronic esters were cleaved within 30 minutes, with a half-life of hydrolysis of ˜5 minutes. Nearly all of boronic ester groups were cleaved by 5-fold excess of H2O2 (5 mM) within 5 minutes.

[2] = Activation of BRAP by H2O2, UV spectroscopy (absorbance at 273 nm); type: physicochemical; settings: after 90 minutes of treatment with H2O2
Method: The activation of BRAP by H2O2 was also studied using UV spectroscopy. BRAP was mixed with H2O2 and the change in UV absorbance was monitored over time.
BRAP was dissolved in PBS (pH 7.4) at a concentration of 1 mM and was incubated at 37° C. in the presence of 100 μM of H2O2. The concentration of HBA generated from BRAP was measured using a UV spectrometer at appropriate time points.

[3] = H2O2 scavenging by peroxalate chemiluminescence (diphenyl oxalate, rubrene)
Method: FIG. 21 is a bar graph illustrating H2O2-scavenging by BRAP-encapsulated PLGA microparticles. BRAP-encapsulated PLGA microparticles were incubated in H2O2 solution (10 μM) for 10 minutes, and the level of H2O2 was determined by peroxalate chemiluminesce using rubrene (1 mg) and diphenylperoxalate (10 mg).
Without wishing to be limited by any theory, BRAP could scavenge H2O2 during its H2O2-mediated boronate oxidation. This possibility was investigated using peroxalate chemiluminescence. Peroxalate chemiluminescence has been used as a versatile tool for the detection of a variety of chemical species including fluorescent molecules and H2O2 because of its excellent specificity and simplicity (Hadd, et al., 1999, J. Chem. Educ. 76:1237; Lee, et al., 2011, Bull. Korean Chem. Soc. 32:2187). […] A majority of H2O2 was scavenged by the same concentration of BRAP within 1 minutes.
The ability of the boronate compound to scavenge H2O2 was evaluated by measuring the chemiluminescence intensity after the reaction with diphenyl oxalate solution including rubrene. The boronate (1 μM, or 10 μM) was added in the H2O2 solution (10 μM). After 1 min reaction with H2O2, diphenyl oxalate solution was added to the H2O2 solution, and the chemiluminescence intensity was measured by using a luminometer (Femtomaster FB 12, Zylux Corporation, TN, US; FIG. 13).
The ability of BRAP to scavenge H2O2 was evaluated by measuring the chemiluminescence intensity after the reaction with diphenyl oxalate solution including rubrene. BRAP (1 μM, 5 μM, 10 μM, 20 μM) was added in the H2O2 solution (10 μM). After 1, 5 or 10 min reaction with H2O2, diphenyl oxalate solution was added to the H2O2 solution, and the chemiluminescence intensity was measured by using a luminometer (Femtomaster FB 12, Zylux Corporation, TN, US).

[4] = tested on: adult rat ventricular cardiomyocytes (ARVC); test: MTT cytotoxicity assay, ARVC; type: cell-based; settings: concentrations as high as 5 mM, 24 hours of incubation
Source text: FIG. 3, comprising FIGS. 3A-3B, is a set of bar graphs illustrating biocompatibility profiles of BRAP assessed by MTT assay in mouse macrophage (RAW264.7) cells (FIG. 3A) and ARVC (FIG. 3B).

[5] = Cumulative toxicity, daily administration for 7 days in mice; type: in vivo, mouse; settings: 1.5 mg/kg/day intraperitoneal
Method: FIG. 7, comprising FIGS. 7A-7C, is a set of images and bar graphs illustrating the safety profile of BRAP (1.5 mg/kg/day) after daily intraperitoneal administration for 7 days. FIGS. 7A-7B: Creatinine (FIG. 7A) and ALT (FIG. 7B) levels 7 days after daily BRAP administration. FIG. 7C: Representative H/E stained tissue sections of different organs 7 days after daily BRAP administration (n=4/group).
To determine the potential cumulative toxic effects of BRAP, BRAP (1.5 mg/kg/day) was administered daily for 7 days in mice.

For `CC1(CO)COB(c2ccc(CO)cc2)OC1` [BRAP, (4-(5-(hydroxymethyl)-5-methyl-1,3,2-dioxaborinan-2-yl)phenyl)methanol], the “time in which nearly all of boronic ester groups were cleaved” value ([1]; 5-fold excess of H2O2 (5 mM)) was at most 5 min, the half-life at 1 mM ([1]; D2O containing H2O2, equimolar concentration of H2O2 (1 mM), read-out: half-life of hydrolysis) was about 5 min and the “stability of boronic ester” value ([1]; absence of H2O2, 3 days) was “remained intact”. The “time in which a majority of boronic esters were cleaved” value ([1]; equimolar concentration of H2O2 (1 mM)) was at most 30 min, the “change in UV absorbance (HBA generation)” value [2] was “no further increase in UV absorbance” and the “chemiluminescence intensity (H2O2 scavenging)” value ([3]; H2O2 solution 10 μM, BRAP, concentration-dependent) was “significant reduction in chemiluminescence intensity”. For the same compound, the “time in which a majority of H2O2 was scavenged” value ([3]; same concentration of BRAP as H2O2) was at most 1 min, the “cytotoxicity (MTT)” value [4] was “no significant cytotoxicity” and the “histology of different organs (H/E)” value [5] was “no significant histological evidence of accumulated toxicity”. The “serum test for hepatic function (ALT)” value [5] was “no significant abnormalities” and the “serum test for renal function (creatinine)” value [5] was “no significant abnormalities”.
